In patent US4153710A, “N-(4-[2-(pyrazole-1-carbonamide)-ethyl]-benzenesulphonyl)-urea” (Starogardzkie Zaklady Farmaceutyczne POLFA, priority 1976, dated 1979) one finds inhibition in vivo and ED50 data, which are given here for 17 compounds.

The structures appear in SMILES notation.

This experiment concerns blood-glucose concentration. The experiment can be described thus: Decrease in blood-glucose concentration in rats after oral dose (Table 1; ED30 rats Table 2). To be noted: Rattus norvegicus, po; for inhibition in vivo at 0.25 mg/kg: p.os. 0.25 mg/kg; for inhibition in vivo at 0.5 mg/kg: p.os. 0.5 mg/kg; for inhibition in vivo at 1 mg/kg: p.os. 1 mg/kg; for inhibition in vivo at 2 mg/kg: p.os. 2 mg/kg; for inhibition in vivo at 4 mg/kg: p.os. 4 mg/kg; for inhibition in vivo at 10 mg/kg: p.os. 10 mg/kg; for ED50: p.os., Table 1; for inhibition in vivo at 50 mg/kg: p.os. 50 mg/kg. The format is in vivo. An excerpt: The hypoglycemic activity of N-{4-[2-(pyrazole-1-carbonamide)-ethyl]-benzenesulphonyl}-ureas prepared according to the present invention can be noticed after their oral administration to mice, rats, rabbits and people and when determining the glucose concentration in blood with a known enzymatic method using glucose oxidase.
The exemplary comparison of effective doses (ED30) and the effect of oral dose size of the compounds prepared according to the present invention with Glibornuride, which is distinguished by its high effectiveness and good tolerance when administered to people, on the glucose concentration in the blood of rats, is given in Table 1.

As to `O=C(NC1CCCCC1)NS(=O)(=O)c1ccc(CCNC(=O)n2cccn2)cc1` [compound 1], the ED50 was 1.8 mg/kg. For the same compound, under “1 h”, testing at 0.25 mg/kg gave an inhibition in vivo of 12%, the inhibition in vivo at 0.5 mg/kg came to 21%, testing at 1 mg/kg gave an inhibition in vivo of 27% and the inhibition in vivo at 2 mg/kg turned out to be 23%. Further, for the setting “1 h”, the inhibition in vivo at 4 mg/kg turned out to be 19% and the inhibition in vivo at 10 mg/kg is 50%. Further, for the setting “3 h”, at 0.25 mg/kg the inhibition in vivo was 19%, testing at 0.5 mg/kg gave an inhibition in vivo of 19%, the inhibition in vivo at 1 mg/kg is 27% and the inhibition in vivo at 2 mg/kg came out at 34%. For the setting “3 h”, this compound displayed an inhibition in vivo at 4 mg/kg of 37% and an inhibition in vivo at 10 mg/kg of 52%. For the setting “6 h”, the inhibition in vivo at 0.25 mg/kg turned out to be 0%, the inhibition in vivo at 0.5 mg/kg is 11%, the inhibition in vivo at 1 mg/kg stood at 14% and the inhibition in vivo at 2 mg/kg was determined as 11%. The compound also yielded an inhibition in vivo at 10 mg/kg (6 h) of 29%.
`Cc1ccn(C(=O)NCCc2ccc(S(=O)(=O)NC(=O)NC3CCCCC3)cc2)n1` [compound 2]: it took a dose of 2.2 mg/kg to reach the 50% effect level (ED50). Under “1 h”, this compound displayed an inhibition in vivo at 1 mg/kg of 19%, an inhibition in vivo at 2 mg/kg of 23% and an inhibition in vivo at 4 mg/kg of 30%. Under “3 h”, this compound had an inhibition in vivo at 1 mg/kg of 9%, an inhibition in vivo at 2 mg/kg of 27% and an inhibition in vivo at 4 mg/kg of 45%. Moreover, under “6 h”, the inhibition in vivo at 1 mg/kg amounted to 0%, the inhibition in vivo at 2 mg/kg was 14% and the inhibition in vivo at 4 mg/kg was 21%.
`Cc1cnn(C(=O)NCCc2ccc(S(=O)(=O)NC(=O)NC3CCCCC3)cc2)c1` [compound 3]: the ED50 came to 1.9 mg/kg. Also, for the setting “1 h”, the inhibition in vivo at 1 mg/kg came to 20%, the inhibition in vivo at 2 mg/kg worked out at 35%, the inhibition in vivo at 4 mg/kg amounted to 33% and the inhibition in vivo at 10 mg/kg turned out to be 52%. In addition, where the note is “3 h”, the inhibition in vivo at 1 mg/kg turned out to be 18%, testing at 2 mg/kg gave an inhibition in vivo of 28%, the inhibition in vivo at 4 mg/kg is 32% and at 10 mg/kg the inhibition in vivo was 48%. For the setting “6 h”, the inhibition in vivo at 1 mg/kg amounted to 4%, at 2 mg/kg the inhibition in vivo was 2% and the inhibition in vivo at 10 mg/kg was found to be 37%.
`CCc1cnn(C(=O)NCCc2ccc(S(=O)(=O)NC(=O)NC3CCCCC3)cc2)c1` [compound 4]: the ED50 is 1.6 mg/kg. Where the note is “1 h”, this compound displayed an inhibition in vivo at 1 mg/kg of 28%, an inhibition in vivo at 2 mg/kg of 46%, an inhibition in vivo at 4 mg/kg of 40% and an inhibition in vivo at 10 mg/kg of 55%. Under “3 h”, this compound gave an inhibition in vivo at 1 mg/kg of 4%, an inhibition in vivo at 2 mg/kg of 18%, an inhibition in vivo at 4 mg/kg of 32% and an inhibition in vivo at 10 mg/kg of 39%. Where the note is “6 h”, the inhibition in vivo at 1 mg/kg is 0%, the inhibition in vivo at 2 mg/kg amounted to 1% and testing at 10 mg/kg gave an inhibition in vivo of 25%.
Consider `O=C(NC1CCCCC1)NS(=O)(=O)c1ccc(CCNC(=O)n2cc(Cl)cn2)cc1` [compound 5], for which the inhibition in vivo at 10 mg/kg reads like this: (1 h) 16%; (3 h) 0%. Further, the inhibition in vivo at 50 mg/kg by setting is: (1 h) 38%; (3 h) 36%; (6 h) 12%.
For the compound `Cc1cc(C)n(C(=O)NCCc2ccc(S(=O)(=O)NC(=O)NC3CCCCC3)cc2)n1` [compound 6], it took a dose of 3.5 mg/kg to reach the 50% effect level (ED50). For the setting “1 h”, testing at 4 mg/kg gave an inhibition in vivo of 18% and the inhibition in vivo at 10 mg/kg came to 23%. Moreover, for the setting “3 h”, the inhibition in vivo at 4 mg/kg stood at 33% and the inhibition in vivo at 10 mg/kg amounted to 40%. Where the note is “6 h”, this compound registered an inhibition in vivo at 4 mg/kg of 23% and an inhibition in vivo at 10 mg/kg of 35%.
Compound `Cc1cn(C(=O)NCCc2ccc(S(=O)(=O)NC(=O)NC3CCCCC3)cc2)nc1C` [compound 7] came in with an ED50 of 3.3 mg/kg. For the setting “1 h”, the inhibition in vivo at 0.25 mg/kg worked out at 11%, the inhibition in vivo at 0.5 mg/kg came to 19%, the inhibition in vivo at 2 mg/kg was determined as 18% and the inhibition in vivo at 10 mg/kg was determined as 37%. For the setting “3 h”, this compound had an inhibition in vivo at 0.25 mg/kg of 17%, an inhibition in vivo at 0.5 mg/kg of 29%, an inhibition in vivo at 2 mg/kg of 24% and an inhibition in vivo at 10 mg/kg of 54%. Under “6 h”, the inhibition in vivo at 0.25 mg/kg turned out to be 11%, the inhibition in vivo at 0.5 mg/kg stood at 20%, the inhibition in vivo at 2 mg/kg amounted to 19% and the inhibition in vivo at 10 mg/kg came to 26%.
The compound `CCc1nn(C(=O)NCCc2ccc(S(=O)(=O)NC(=O)NC3CCCCC3)cc2)cc1C` [compound 8] showed an ED50 of 4 mg/kg. Under “1 h”, this compound yielded an inhibition in vivo at 1 mg/kg of 17%, an inhibition in vivo at 4 mg/kg of 19% and an inhibition in vivo at 10 mg/kg of 27%. For the same compound, under “3 h”, 1 mg/kg produced 18% inhibition in vivo, testing at 4 mg/kg gave an inhibition in vivo of 31% and the inhibition in vivo at 10 mg/kg amounted to 45%. For the setting “6 h”, this compound gave an inhibition in vivo at 1 mg/kg of 15%, an inhibition in vivo at 4 mg/kg of 15% and an inhibition in vivo at 10 mg/kg of 25%.
As for `Cc1nn(C(=O)NCCc2ccc(S(=O)(=O)NC(=O)NC3CCCCC3)cc2)cc1Cl` [compound 9], the inhibition in vivo at 10 mg/kg runs as follows: (1 h) 24%; (3 h) 7%; (6 h) 0%.
In turn, `Cc1nn(C(=O)NCCc2ccc(S(=O)(=O)NC(=O)NC3CCCCC3)cc2)c(C)c1C` [compound 10] returned an ED50 of 4 mg/kg. Besides, under “1 h”, at 4 mg/kg the inhibition in vivo was 24%, the inhibition in vivo at 10 mg/kg turned out to be 35% and the inhibition in vivo at 50 mg/kg is 48%. Moreover, where the note is “3 h”, the inhibition in vivo at 4 mg/kg stood at 35%, at 10 mg/kg the inhibition in vivo was 49% and the inhibition in vivo at 50 mg/kg is 62%. Besides, where the note is “6 h”, the inhibition in vivo at 4 mg/kg is 28%, 10 mg/kg produced 17% inhibition in vivo and the inhibition in vivo at 50 mg/kg came out at 52%.
Turning to `CCc1c(C)nn(C(=O)NCCc2ccc(S(=O)(=O)NC(=O)NC3CCCCC3)cc2)c1C` [compound 11], the 50% effect level (ED50) was put at a dose of 4.8 mg/kg. Also, where the note is “1 h”, the inhibition in vivo at 4 mg/kg came out at 16%, the inhibition in vivo at 10 mg/kg is 29% and testing at 50 mg/kg gave an inhibition in vivo of 57%. For the setting “3 h”, this compound yielded an inhibition in vivo at 4 mg/kg of 27%, an inhibition in vivo at 10 mg/kg of 53% and an inhibition in vivo at 50 mg/kg of 60%. Besides, for the setting “6 h”, 4 mg/kg produced 3% inhibition in vivo and the inhibition in vivo at 50 mg/kg was 53%.
Take `CCCc1c(C)nn(C(=O)NCCc2ccc(S(=O)(=O)NC(=O)NC3CCCCC3)cc2)c1C` [compound 12]: the inhibition in vivo at 10 mg/kg stood at 14% (1 h) and 10% (6 h). Moreover, the inhibition in vivo at 50 mg/kg reads like this: (1 h) 22%; (3 h) 39%; (6 h) 32%.
`CCCCc1c(C)nn(C(=O)NCCc2ccc(S(=O)(=O)NC(=O)NC3CCCCC3)cc2)c1C` [compound 13] displayed an inhibition in vivo at 10 mg/kg (1 h) of 0%. Moreover, the inhibition in vivo at 50 mg/kg (1 h) turned out to be 18%, 50 mg/kg produced 27% inhibition in vivo (3 h) and the inhibition in vivo at 50 mg/kg (6 h) was 3%.
`Cc1nn(C(=O)NCCc2ccc(S(=O)(=O)NC(=O)NC3CCCCC3)cc2)c(C)c1Cl` [compound 14] registered an ED50 of 5 mg/kg. Besides, where the note is “1 h”, at 1 mg/kg the inhibition in vivo was 11%, the inhibition in vivo at 2 mg/kg turned out to be 14% and the inhibition in vivo at 4 mg/kg worked out at 21%. Under “3 h”, the inhibition in vivo at 1 mg/kg was 21%, the inhibition in vivo at 2 mg/kg is 24% and 4 mg/kg produced 29% inhibition in vivo. For the same compound, where the note is “6 h”, the inhibition in vivo at 1 mg/kg was found to be 7%, the inhibition in vivo at 2 mg/kg worked out at 14% and at 4 mg/kg the inhibition in vivo was 11%.
On to `O=C(NC1CCCC1)NS(=O)(=O)c1ccc(CCNC(=O)n2cccn2)cc1` [compound 15], for which the inhibition in vivo at 4 mg/kg was found to be 14% (1 h) and 5% (3 h). For the same compound, the inhibition in vivo at 10 mg/kg reads like this: (1 h) 20%; (3 h) 16%; (6 h) 7%.
In the case of `Cc1ccn(C(=O)NCCc2ccc(S(=O)(=O)NC(=O)NC3CCCC3)cc2)n1` [compound 16], the inhibition in vivo at 4 mg/kg runs as follows: (1 h) 18%; (3 h) 14%. Further, the inhibition in vivo at 10 mg/kg reads like this: (1 h) 16%; (3 h) 20%.
In turn, `Cc1cnn(C(=O)NCCc2ccc(S(=O)(=O)NC(=O)NC3CCCC3)cc2)c1` [compound 17] registered an ED50 of 2.3 mg/kg. Under “1 h”, this compound displayed an inhibition in vivo at 2 mg/kg of 29%, an inhibition in vivo at 4 mg/kg of 41% and an inhibition in vivo at 10 mg/kg of 41%. For the setting “3 h”, this compound showed an inhibition in vivo at 2 mg/kg of 16%, an inhibition in vivo at 4 mg/kg of 41% and an inhibition in vivo at 10 mg/kg of 51%. Where the note is “6 h”, this compound registered an inhibition in vivo at 2 mg/kg of 5%, an inhibition in vivo at 4 mg/kg of 23% and an inhibition in vivo at 10 mg/kg of 28%.
